Experiments:
mir-15a pri-miRNA = mir-15a pri-miRNA expression in T47D cells (real-time RT-PCR); format: cell-based, human; details: 100 nM
Source text: The gapmer oligomeric compounds targeting the mir-15b and mir-15-a-1 mature miRNAs described above were also transfected into T47D cells according to standard procedures. In addition, uniform 2′-MOE and 2′-MOE gapmer oligomeric compounds targeting the mature mir-15a-1 and mir-15b miRNAs were also transfected into T47D cells, for analysis of their effects on mir-15a-1 and mir-15b pri-miRNA levels. The oligomeric compounds ISIS Number 327927 (SEQ ID NO: 345), a uniform 2′-MOE compound and ISIS Number 345391 (SEQ ID NO: 345), a 2′-MOE 5-10-7 gapmer compound, both target mir-15b. The oligomeric compounds ISIS Number 327951 (SEQ ID NO: 369), a uniform 2′-MOE compound, and ISIS Number 345411 (SEQ ID NO: 369), a 2′-MOE 5-10-7 gapmer compound, both target mir-15a-1. Oligomeric compounds ISIS Number 129686 ([…]; SEQ ID NO: 901), and ISIS Number 129691 ([…]; SEQ ID NO:902), both universal scrambled controls, as well as ISIS Number 116847 ([…]; SEQ ID NO: 844) targeting an unrelated gene, PTEN, were used as negative controls. ISIS Numbers 129686, 129691, and 116847 are phosphorothiated 2′-MOE 5-10-5 gapmers, and all cytosines are 5-methylcytosines. T47D cells (seeded in 12-well plates) were treated with these oligomeric compounds, and RNA was isolated from the treated cells by lysing in 1 mL TRIZOL™ (Invitrogen) and total RNA was prepared using the manufacturer's recommended protocols. To assess the effects of these compounds on expression of the mir-15a or mir-15b pri-miRNA molecules, real-time RT-PCR analysis was performed using either the primer/probe set specific for the mir-15a pri-miRNA molecule described above, or a primer probe set specific for the mir-15b pri-miRNA molecule: ISIS 339320 ([…]; SEQ ID NO: 903) was used as the forward primer for the mir-15b pri-miRNA, ISIS 339321 ([…] ACTGT; SEQ ID NO: 904) was used as the reverse primer for the mir-15b pri-miRNA, and ISIS 339322 ([…]; SEQ ID NO: 905) was used as the probe. Total RNA was quantified using RiboGreen™ RNA quantification reagent (Molecular Probes, Inc. Eugene, Oreg.), expression levels observed for each target were normalized to 5.8S rRNA, and values are expressed relative to the untreated control. Inhibition of expression of the mir15a or mir-15b pri-miRNA molecules upon treatment with these oligomeric compounds is was assessed and expressed as a percentage of RNA levels in untreated control cells.
Using the real-time RT-PCR methods described, the expression levels of the mir-15a pri-miRNA were compared in T47D cells treated with the nested series of uniform 2′-MOE oligomeric compounds, targeting and spanning the entire length of the mir-15a pri-miRNA. The region encompassing the mir-15a primary transcript (the complement of nucleotides 31603159 to 31603468 of GenBank Accession number NT—024524.13; AAATAATTATG […]) is incorporated herein as SEQ ID NO: 906. ISIS Number 356215 (SEQ ID NO: 879) targets a region flanking and immediately 5′ to the predicted 5′ Drosha cleavage site in the mir-15a pri-miRNA. ISIS Number 356218 (SEQ ID NO: 881) targets aregion in the loop of the mir-15a pri-miRNA. ISIS 356227 (SEQ ID NO: 883) targets a region flanking and immediately 3′ to the predicted 3′ Drosha cleavage site in the mir-15a pri-miRNA. Additionally, oligomeric compound ISIS 327951 (SEQ ID NO: 369), a uniform 2′-MOE compound targeting the mature mir-15a-1 miRNA, was tested for comparison. Oligomeric compounds ISIS 327901 (SEQ ID NO: 319) targeting the mature mir-143 miRNA; ISIS 129690, ([…]; SEQ ID NO: 907), a phosphorothioate 5-10-5 MOE gapmer used as a universal scrambled control; and ISIS 116847 ([…]; SEQ ID NO: 844), a uniform 5-10-52′-MOE gapmer targeting an unrelated gene, PTEN, were used as negative controls. Using the transfection methods previously described, T47D cells were treated with 100 nM of each of these oligomeric compounds. […]

mir-15a miRNA = assay: pGL3-mir-15a sensor luciferase assay in HeLa cells; format: cell-based, human; details: HeLa, 3-, 10- or 30 nM
Source text: In order to assess the ability of miRNAs to bind predicted miRNA binding sites and regulate the expression of the luciferase reporter, in some embodiments, expression systems based on the pGL3-Control (Promega Corp., Madison Wis.) reporter vector and comprising either a mir-15a, mir-21, or a mir-23b miRNA binding site were developed and used in transient transfections of HeLa cells to determine whether the endogenous mir-15a, mir-21, or mir-23b miRNAs, respectively, could repress luciferase reporter gene expression.
The pGL3-mir-15a sensor plasmid was created by cloning the sequence ([…]; SEQ ID NO: 369), complementary to the mir-15a miRNA, into the Xba site of the pGL3-Control plasmid, placing the potential miRNA-binding site in the 3′UTR of the luciferase reporter. This reporter plasmid was used to transfect HeLa cells and it was observed that the endogenous mir-15a miRNA was able to inhibit luciferase expression from the pGL3-mir-15a sensor plasmid. Thus, to further evaluate the ability of the mir-15a miRNA to bind this target site encoded by the pGL3-mir-15a sensor plasmid, and to assess the ability of oligomeric compounds to interfere with mir-15a-mediated silencing, pGL3-mir-15a sensor-expressing HeLa cells were treated with varying concentrations (3-, 10- or 30 nM) of the following oligomeric compounds: ISIS Number 327951 (SEQ ID NO: 369) is a uniform 2′-MOE compound targeting the mature mir-15a-1 miRNA. ISIS Numbers 356213 (SEQ ID NO: 878), 356215 (SEQ ID NO: 879), 356216 (SEQ ID NO: 880), 356218 (SEQ ID NO: 881), 356221 (SEQ ID NO: 882), 356227 (SEQ ID NO: 883) and 356229 (SEQ ID NO: 884) are phosphorothioate, uniform 2′-MOE oligomeric compounds designed and synthesized to target the entire length of the mir-15a pri-miRNA molecule (described in detail in Example 28, below). […] The data presented in Table 42 are the average of three trials and are presented as percent untreated control (luciferase plasmid only, not treated with oligomeric compound) luciferase expression, normalized to pRL-CMV levels.

DIO mice = assay: Diet-induced obesity (DIO) mice; format: in vivo; details: for insulin levels: two and four week time points, vs saline
Protocol: As described, supra, the C57BL/6 mouse strain is reported to be susceptible to hyperlipidemia-induced atherosclerotic plaque formation, and when these mice are fed a high-fat diet, they develop diet-induced obesity (DIO). Accordingly, the DIO mouse model is useful for the investigation of obesity and development of agents designed to treat these conditions. In one embodiment of the present invention, oligomeric compounds targeting miRNAs were tested in the DIO model. Normal C57/BL6 male mice were fed a high fat diet (40% fat, 41% carbohydrate, 18% protein) for 12 weeks before the study began. DIO mice were then randomized by weight and insulin values. Initial body fat composition was determined by Dual X-ray Absorptiometry (DEXA) Scan. DIO mice were then subcutaneously injected with oligomeric compounds of the invention at a dose of 25 mg/kg, twice weekly. DIO mice were treated with oligomeric compounds ISIS Numbers 327901 and 340927 targeting mir-143, ISIS Numbers 327892 and 340926 targeting mir-131/mir-9, ISIS Numbers 327878 and ISIS Number 345349 targeting mir-203, and ISIS Numbers 327889 and 340925, targeting mir-23b. […] DEXA scans were also performed at weeks 0, 3 and 5 after treatment with the oligomeric compounds to assess the fat mass to lean mass ratio. The effects of target inhibition on levels of plasma glucose and insulin, liver transaminases, cholesterol and triglycerides, were also assessed weekly by tail bleed, and after the treatment period, mice were sacrificed and liver and kidney heart, as well as white adipose tissue (WAT) tissues collected. The mRNA expression levels of the Glut4, aP2, HSL and PPARγ marker genes are also assessed. […] Furthermore, some improvement in body composition (a reduction in body weight and fat mass) was observed.

ob/ob mice = assay: ob/ob mice: plasma parameters, food consumption, marker gene mRNA; format: in vivo, mouse; details: ob/ob mice
Source text: Leptin is a hormone produced by fat cells that regulates appetite. Deficiencies in this hormone in both humans and non-human animals leads to obesity. ob/ob mice have a mutation in the leptin gene which results in obesity and hyperglycemia. As such, these mice are a useful model for the investigation of obesity and diabetes and treatments designed to treat these conditions. ob/ob mice have higher circulating levels of insulin and are less hyperglycemic than db/db mice, which harbor a mutation in the leptin receptor. In accordance with the present invention, the oligomeric compounds of the invention are tested in the ob/ob model of obesity and diabetes.
Seven-week old male C57B1/6J-Lep ob/ob mice (Jackson Laboratory, Bar Harbor, Me.) are fed a diet with a fat content of 10-15% and are subcutaneously injected with the oligomeric compounds of the invention or a control compound at a dose of 25 mg/kg two times per week for 4 weeks. Saline-injected animals, leptin wildtype littermates (i.e. lean littermates) and ob/ob mice fed a standard rodent diet serve as controls. After the treatment period, mice are sacrificed and target levels are evaluated in liver, brown adipose tissue (BAT) and white adipose tissue (WAT). RNA isolation and target RNA expression level quantitation are performed as described by other examples herein.
To assess the physiological effects resulting from modulation of target, the ob/ob mice are evaluated at the end of the treatment period for serum lipids, serum free fatty acids, serum cholesterol (CHOL), liver triglycerides, fat tissue triglycerides and liver enzyme levels. Hepatic steatosis, or clearing of lipids from the liver, is assessed by measuring the liver triglyceride content. Hepatic steatosis is assessed by routine histological analysis of frozen liver tissue sections stained with oil red O stain, which is commonly used to visualize lipid deposits, and counterstained with hematoxylin and eosin, to visualize nuclei and cytoplasm, respectively.
The effects of target modulation on glucose and insulin metabolism are evaluated in the ob/ob mice treated with the oligomeric compounds of the invention. Plasma glucose is measured at the start of the treatment and after 2 weeks and 4 weeks of treatment. Plasma insulin is similarly measured at the beginning of the treatment, and following at 2 weeks and at 4 weeks of treatment. Glucose and insulin tolerance tests are also administered in fed and fasted mice. Mice receive intraperitoneal injections of either glucose or insulin, and the blood glucose and insulin levels are measured before the insulin or glucose challenge and at 15, 20 or 30 minute intervals for up to 3 hours.
The ob/ob mice that receive treatment are evaluated at the end of the treatment period for the effects of target modulation on the expression of genes that participate in lipid metabolism, cholesterol biosynthesis, fatty acid oxidation, fatty acid storage, gluconeogenesis and glucose metabolism. These genes include, but are not limited to, HMG-CoA reductase, acetyl-CoA carboxylase 1 and acetyl-CoA carboxylase 2, camitine palmitoyltransferase I and glycogen phosphorylase, glucose-6-phosphatase and phosphoenolpyruvate carboxykinase 1, lipoprotein lipase and hormone sensitive lipase. mRNA levels in liver and white and brown adipose tissue are quantitated by real-time PCR as described in other examples herein, employing primer/probe sets that are generated using published sequences of each gene of interest.
As described herein, leptin-deficient (ob/ob) mice, leptin receptor-deficient (db/db) mice and diet-induced obesity (DIO) mice are used to model obesity and diabetes. In accordance with the present invention, oligomeric compounds targeting mir-143, mir-131 (also known as mir-9) and mir-203 were tested in the ob/ob and db/db models. […]

[1] = 25 mg/kg s.c. two times per week, 6 weeks

With “CACAAACCATTATGTGCTGCTA (chemistry not given here) [ISIS 327951, uniform 2′-MOE PS; targets mir-15a-1]” the “levels of the mir-15a pri-miRNA molecule” value (mir-15a pri-miRNA) was “stimulate an increase in levels of the mir-15a pri-miRNA molecule” and the “luciferase activity from the pGL3-mir-15a sensor plasmid” value (mir-15a miRNA) was “blocked the inhibitory effect of mir-15a”.

In the case of “ACTTTCGGTTATCTAGCTTTA [ISIS 340926] (chemistry not given here) [5-10-6 gapmer; targets mir-131/mir-9]”, the “liver toxicity (plasma transaminase levels, weekly)” value (DIO mice; 25 mg/kg s.c. twice weekly, 25 mg/kg) is reported as “did not cause significant increases in liver toxicity”, the insulin levels (DIO mice) is reported as “effective at reducing insulin levels” and the “plasma glucose levels (fed)” value (ob/ob mice; [1]) is reported as “reduced beginning at approximately four weeks after the start of treatment”. The plasma triglyceride levels (ob/ob mice; [1]) was “reduced over time” and the “plasma glucose levels, fasted state” value (ob/ob mice; day 19) was “significant reductions in plasma glucose levels”.

In the case of “CTAGTGGTCCTAAACATTTCAC (chemistry not given here) [ISIS 345349, 5-10-7 gapmer; targets mir-203]”, the insulin levels (DIO mice) is reported as “effective at reducing insulin levels” and the plasma triglyceride levels (ob/ob mice; [1]) is reported as “reduced over time”.

— patent US8178506B2, “Oligomeric compounds and compositions for use in modulation of small non-coding RNAs” (Regulus Therapeutics Inc., priority 2003, dated 2012)
